Experimental data: ChEMBL document CHEMBL1201862, “PubChem BioAssay data set” (2004)
“And” between values parts separate entries of the source, which are not always exact repeats. Equal entries are not always repeated.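 Five compound concentrations were applied to cells in 96-well plates for 48 hours; endpoints were derived by simple linear interpolation of the resulting dose-response curve. GI50: concentration for 50% inhibition of growth.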 The source made the active and inactive calls. No stated cut-off is given here; in the data, active = GI50 up to about 1.1 µM and inactive = higher.

How the values were obtained:
Assay in all cases: growth of human tumour cells (NCI), 48 h
[1] = tested on: A549
[2] = tested on: ACHN
[3] = tested on: CAKI-1
[4] = tested on: DU-145
[5] = tested on: EKVX
[6] = tested on: HCT-116
[7] = tested on: HOP-62
[8] = tested on: MCF7
[9] = tested on: MDA-N
[10] = tested on: NCI-H522
[11] = tested on: NCI/ADR-RES
[12] = tested on: OVCAR-3
[13] = tested on: OVCAR-4
[14] = tested on: OVCAR-5
[15] = tested on: OVCAR-8
[16] = tested on: RPMI-8226
[17] = tested on: SF-295
[18] = tested on: SNB-19
[19] = tested on: SNB-75
[20] = tested on: UO-31

Row | Compound | GI50 [1] | GI50 [2] | GI50 [3] | GI50 [4] | GI50 [5] | GI50 [6] | GI50 [7] | GI50 [8] | GI50 [9] | GI50 [10] | GI50 [11] | GI50 [12] | GI50 [13] | GI50 [14] | GI50 [15] | GI50 [16] | GI50 [17] | GI50 [18] | GI50 [19] | GI50 [20]
1 | CC1(C)CCC(=O)NC1CC(=O)CC1NC(=O)CCC1(C)C (stereo unspecified) | > 100 µM (inactive) | > 100 µM (inactive) | > 100 µM (inactive) | > 100 µM (inactive) | > 100 µM (inactive) | > 100 µM (inactive) | > 100 µM (inactive) | > 100 µM (inactive) | > 100 µM (inactive) | > 100 µM (inactive) | > 100 µM (inactive) | > 100 µM (inactive) | > 100 µM (inactive) | > 100 µM (inactive) | > 100 µM (inactive) | > 100 µM (inactive) | > 100 µM (inactive) | > 100 µM (inactive) | > 100 µM (inactive) | > 100 µM (inactive)
2 | COc1ccc(-c2cn3c(n2)sc2cc(C)ccc23)cc1 | 24.4 µM (inactive) | 28.4 µM (inactive) | 57.5 µM (inactive) | 23.2 µM (inactive) | 4.73 µM (inactive) | 13.2 µM (inactive) | 20.2 µM (inactive) | 4.85 µM (inactive) | 5.08 µM (inactive) | 5.55 µM (inactive) | > 100 µM (inactive) | 7.14 µM (inactive) | 10.9 µM (inactive) | 43.2 µM (inactive) | 8.17 µM (inactive) | 3.93 µM (inactive) | 16.8 µM (inactive) | 12.5 µM (inactive) | 17.4 µM (inactive) | 42.3 µM (inactive)
3 | O=C1/C(=N/O)Cc2c(Br)ccc(Br)c21 |  | 40.7 µM (inactive) | 42.4 µM (inactive) | 71.6 µM (inactive) | 28.2 µM (inactive) | 55.1 µM (inactive) | > 100 µM (inactive) | 36.1 µM (inactive) | 48.3 µM (inactive) | 27.5 µM (inactive) | 35.7 µM (inactive) | 22.3 µM (inactive) | 33.3 µM (inactive) | > 100 µM (inactive) | 42.7 µM (inactive) | 24.4 µM (inactive) | 34.6 µM (inactive) |  | > 100 µM (inactive) | > 100 µM (inactive)
4 | COc1ccc(C2c3cc4c(cc3OC(N3CCOCC3)C2C)OCO4)c(OC)c1 (stereo unspecified) | 7.43 µM (inactive) | 9.48 µM (inactive) | 4.47 µM (inactive) | 9.89 µM (inactive) | 13.9 µM (inactive) | 3.77 µM (inactive) | 5.06 µM (inactive) | 4.59 µM (inactive) | 1.64 µM (inactive) | 2.68 µM (inactive) | 2.71 µM (inactive) | 3.48 µM (inactive) | 10 µM (inactive) | 19.1 µM (inactive) | 8 µM (inactive) | 3.15 µM (inactive) | 3.48 µM (inactive) | 4.36 µM (inactive) | 3.95 µM (inactive) | 9.06 µM (inactive)
5 | C=C(Cl)C(Cl)(CBr)CCCC(C)(C)Cl (stereo unspecified) | 14.6 µM (inactive) | 6.68 µM (inactive) | 1.99 µM (inactive) | 10.9 µM (inactive) | 18.5 µM (inactive) | 14.1 µM (inactive) | 4.26 µM (inactive) | 7.1 µM (inactive) | 28.1 µM (inactive) | 9.25 µM (inactive) | 30.4 µM (inactive) | 2.47 µM (inactive) | 2.55 µM (inactive) | 18.4 µM (inactive) | 18.7 µM (inactive) | 1.28 µM (inactive) | 7.55 µM (inactive) | 14.7 µM (inactive) | 4.48 µM (inactive) | 14.5 µM (inactive)
6 | COc1ccc2[nH]c3c(C)c4ncccc4c(C)c3c2c1 | 2.18 µM (inactive) | 5.2 µM (inactive) | > 10 µM (inactive) | 7.55 µM (inactive) | 4.97 µM (inactive) | 3.4 µM (inactive) | 6.84 µM (inactive) | 2.02 µM (inactive) | 6.81 µM (inactive) | > 10 µM (inactive) | 3.12 µM (inactive) | 2.71 µM (inactive) | 7.43 µM (inactive) | 5.61 µM (inactive) | 3.73 µM (inactive) | 3.44 µM (inactive) | 2.43 µM (inactive) | > 10 µM (inactive) | 9.91 µM (inactive) | 
7 | O=Cc1[nH]c(=O)[nH]c(=O)c1CCl | > 100 µM (inactive) | > 83 µM (inactive) | > 100 µM (inactive) | > 100 µM (inactive) | > 100 µM (inactive) | 50.5 µM (inactive) | > 100 µM (inactive) | > 65.8 µM (inactive) | > 100 µM (inactive) | > 100 µM (inactive) | > 100 µM (inactive) | > 100 µM (inactive) | > 60.5 µM (inactive) | > 100 µM (inactive) | > 82.4 µM (inactive) | > 48.6 µM (inactive) | > 100 µM (inactive) | > 100 µM (inactive) | 10.9 µM (inactive) | > 100 µM (inactive)
8 | COc1cc(/C=C2\C(=O)N(c3ccc(NC(C)=O)cc3)C(c3ccccc3)S2(=O)=O)cc(OC)c1OC (stereo unspecified) | > 100 µM (inactive) | > 100 µM (inactive) | > 100 µM (inactive) | > 100 µM (inactive) | 91.4 µM (inactive) | > 100 µM (inactive) | > 100 µM (inactive) | 45.5 µM (inactive) | 79.6 µM (inactive) | > 100 µM (inactive) | > 100 µM (inactive) | 93.3 µM (inactive) | 60.8 µM (inactive) | > 100 µM (inactive) | > 100 µM (inactive) | 60.8 µM (inactive) | 78 µM (inactive) | > 100 µM (inactive) | 43.6 µM (inactive) | 66.5 µM (inactive)
9 | CCN(CC)CCN1CCN=c2c3cc(OC)ccc3n3cnc4ccc1c2c43 | 0.425 µM (active) | 0.339 µM (active) | 0.621 µM (active) | 0.7 µM (active) | 1.01 µM (active) | 0.3 µM (active) | 0.979 µM (active) | 0.171 µM (active) | 0.49 µM (active) | 1.49 µM (inactive) | 0.475 µM (active) | 0.946 µM (active) | 0.274 µM (active) | 0.736 µM (active) | 0.318 µM (active) | 0.305 µM (active) | 0.548 µM (active) | 0.481 µM (active) | 0.714 µM (active) | 1.41 µM (inactive)
10 | CCOP(=O)(/C=C\n1ccc(N)nc1=O)OCC | > 100 µM (inactive) | > 100 µM (inactive) | > 100 µM (inactive) | > 100 µM (inactive) | > 100 µM (inactive) | > 100 µM (inactive) | > 100 µM (inactive) | > 100 µM (inactive) | > 100 µM (inactive) | 47.4 µM (inactive) | > 100 µM (inactive) | > 100 µM (inactive) | > 100 µM (inactive) | > 100 µM (inactive) | > 100 µM (inactive) | > 100 µM (inactive) | > 100 µM (inactive) | > 100 µM (inactive) | > 100 µM (inactive) | 
11 | COc1ccc2c(Cl)cc(NC(=S)Nc3ccccc3)nc2c1 | 29.5 µM (inactive) | 38.5 µM (inactive) | 35.6 µM (inactive) | 35.7 µM (inactive) | 22 µM (inactive) | 20.2 µM (inactive) | 35.5 µM (inactive) | 25.8 µM (inactive) | 15.4 µM (inactive) | 13.2 µM (inactive) | 22.3 µM (inactive) | 31.8 µM (inactive) | 32.4 µM (inactive) | 30.1 µM (inactive) | 19.4 µM (inactive) | 21.2 µM (inactive) | 31.6 µM (inactive) | 20.6 µM (inactive) | 23.6 µM (inactive) | 
12 | CCCNCC(O)CNc1ccc(NCC(O)CNCCC)c2c1C(=O)c1ccccc1C2=O (stereo unspecified) | 1.81 µM (inactive) | 8.83 µM (inactive) | 12.6 µM (inactive) | 6.22 µM (inactive) | 7.73 µM (inactive) | 2.56 µM (inactive) | 1.82 µM (inactive) | 2.54 µM (inactive) | 2.74 µM (inactive) | 1.21 µM (inactive) | > 75 µM (inactive) | 4.37 µM (inactive) | 3.07 µM (inactive) | 1.61 µM (inactive) | 2.26 µM (inactive) | 1.69 µM (inactive) |  | 1.95 µM (inactive) | 2.29 µM (inactive) | 12.6 µM (inactive)
13 | C[C@]1(O)O[C@@H]2OCC[C@@H]2C2=C1C(=O)c1ccccc1C2=O | 17.9 µM (inactive) | 17.7 µM (inactive) | 20.1 µM (inactive) | 16.7 µM (inactive) | 20 µM (inactive) |  | 12.7 µM (inactive) | 6.46 µM (inactive) | 6.15 µM (inactive) | 16.6 µM (inactive) | 19.7 µM (inactive) | 9.66 µM (inactive) | 12.5 µM (inactive) | 17.3 µM (inactive) | 15.3 µM (inactive) | 3.62 µM (inactive) | 18.7 µM (inactive) | 18 µM (inactive) | 29.6 µM (inactive) | 17.9 µM (inactive)
14 | N=C(N)N/N=C/c1c(-c2cc([N+](=O)[O-])c(Cl)cc2Cl)nc2sccn12 | 1.82 µM (inactive) and 1.51 µM (inactive) | 527 nM (active) and 1.67 µM (inactive) | 6.27 µM (inactive) | 2.15 µM (inactive) and 449 nM (active) | 1.72 µM (inactive) and 1.77 µM (inactive) |  | 1.89 µM (inactive) | 1.26 µM (inactive) | 1.48 µM (inactive) | 340 nM (active) and 1.76 µM (inactive) | > 100 µM (inactive) | 1.86 µM (inactive) | 1.66 µM (inactive) | 1.87 µM (inactive) | 1.98 µM (inactive) and 2 µM (inactive) | 1.27 µM (inactive) and 1.75 µM (inactive) | 1.56 µM (inactive) and 1.47 µM (inactive) |  | 0.0155 µM (active) | 2.05 µM (inactive) and 1.29 µM (inactive)
